US20250034108A1, “SODIUM CHANNEL BLOCKERS” (NOVARTIS AG, priority 2023, published 2025)
pIC50: −log10 of the molar value.

Target: human Nav1.5 (Homo sapiens (Human), UniProt Q14524)
Assay: Qpatch automated patch-clamp, peak Nav1.5 current inhibition, 5-Hz AF-like assay (holding potential -85 mV)
Format: cell-based
Details: CHO-K1 cells stably expressing human Nav1.5, Table 6, Examples 63-90, read-out: Nav1.5 IC50 (5 Hz, AF Rate)
Source text: Electrophysiology was used to measure the ionic currents in isolated living cells using automated patch-clamp recording, performed using an automated patch-clamp machine called Qpatch (Sophion Bioscience). Two different assay conditions were used to identify compounds with atrial-selective potential. The 5-Hz AF-like assay has more depolarized holding potential at −85 mV to mimic atrial resting membrane potential (RMP) and was used to identify compounds of strong rate-dependence. Active, rate-dependent compounds were then screened at 1 Hz (i.e., sinus rate) at the holding potential of −100 mV to mimic the ventricular scenario and help identify compounds with the largest potency separation or attenuation from the 5-Hz AF-like assay. Such compounds have the potential for treating AF without the QRS liability inherent to Class Ic drugs.
The sodium current conducted through a cell (via Nav1.5) or electrical signals were processed through a low-pass filter at 5 KHz, re-digitalized and acquired at 20 kHz. Series resistance was not compensated and leak subtraction was performed.
1 to 3 million Chinese Hamster Ovary cells (also known as CHO-K1) stably expressing human Nav1.5 were seeded into […] culture flasks with 25 mL medium (consisting of Gibco Dulbecco's Modified Eagle Medium as a base medium with 1% MEM non-essential amino acids, 400 μg/mL Geneticin, 5 μg/mL puromycin and 10% fetal bovine serum) 48-72 hours prior to the experiments. On the day of the experiment, cells were washed once with phosphate-buffered saline (also known as PBS; Gibco) detached with Detachin™ (Genlantis), and re-suspended in CHO—S-SFM II media (Gibco) at 200,000 cells/mL. The CHO—S-SFM II was replaced with assay solutions prior to the assays. Whole-cell currents were recorded at room temperature in the whole-cell configuration. The external aqueous assay solution (pH=7.4; Osm=307-315) contained the following (the concentration for each component is expressed in parentheses in mM): NaCl (140 mM), KCl (4 mM), CaCl2) (2 mM), MgCl2 (1 mM), 4-(2-hydroxyethyl)-1-piperazineethanesulfonic acid, also known as HEPES (10 mM), and glucose (5 mM). The internal aqueous assay solution (pH=7.2; Osm=292-295) contained the following (the concentration for each component is expressed in parentheses in mM): CsF (110 mM), CsCl (10 mM), NaCl (10 mM), HEPES (10 mM), and ethylene glycolbis(β-aminoethyl ether)-N,N,N′,N′-tetraacetic acid, also known as EGTA (10 mM).
To assess peak Nav1.5 current inhibition in an atrial fibrillation-mimicking condition (Nav1.5 IC50 (5 Hz, AF-like rate) (μM)), compounds were first prepared at 10 mM in DMSO, and cells were pre-incubated with test compounds at each concentration for 3 min. in an ascending order of 0, 0.37, 1.1, 3.3, 10 and 30 μM. An atrial action potential-like protocol consisting of a voltage ramp (+10 mV to −85 mV for a 150 ms duration and a holding potential at −85 mV) was then applied to cells at 5 Hz for 12 s until no further current change or inhibition was observed. The percent inhibition (expressed as ([Iafter compound treatment/Ibefore compound treatment]×100%) is calculated by normalizing the peak current amplitude at the last pulse of each of the 6 compound concentrations by the amplitude before exposure to the test compound. The compiled data was further normalized by vehicle control (DMSO) to account for Nav1.5 current run-down, and IC50 was calculated by Matlab (MathWorks, USA).

Chain of human Nav1.5 (Q14524 whole entry): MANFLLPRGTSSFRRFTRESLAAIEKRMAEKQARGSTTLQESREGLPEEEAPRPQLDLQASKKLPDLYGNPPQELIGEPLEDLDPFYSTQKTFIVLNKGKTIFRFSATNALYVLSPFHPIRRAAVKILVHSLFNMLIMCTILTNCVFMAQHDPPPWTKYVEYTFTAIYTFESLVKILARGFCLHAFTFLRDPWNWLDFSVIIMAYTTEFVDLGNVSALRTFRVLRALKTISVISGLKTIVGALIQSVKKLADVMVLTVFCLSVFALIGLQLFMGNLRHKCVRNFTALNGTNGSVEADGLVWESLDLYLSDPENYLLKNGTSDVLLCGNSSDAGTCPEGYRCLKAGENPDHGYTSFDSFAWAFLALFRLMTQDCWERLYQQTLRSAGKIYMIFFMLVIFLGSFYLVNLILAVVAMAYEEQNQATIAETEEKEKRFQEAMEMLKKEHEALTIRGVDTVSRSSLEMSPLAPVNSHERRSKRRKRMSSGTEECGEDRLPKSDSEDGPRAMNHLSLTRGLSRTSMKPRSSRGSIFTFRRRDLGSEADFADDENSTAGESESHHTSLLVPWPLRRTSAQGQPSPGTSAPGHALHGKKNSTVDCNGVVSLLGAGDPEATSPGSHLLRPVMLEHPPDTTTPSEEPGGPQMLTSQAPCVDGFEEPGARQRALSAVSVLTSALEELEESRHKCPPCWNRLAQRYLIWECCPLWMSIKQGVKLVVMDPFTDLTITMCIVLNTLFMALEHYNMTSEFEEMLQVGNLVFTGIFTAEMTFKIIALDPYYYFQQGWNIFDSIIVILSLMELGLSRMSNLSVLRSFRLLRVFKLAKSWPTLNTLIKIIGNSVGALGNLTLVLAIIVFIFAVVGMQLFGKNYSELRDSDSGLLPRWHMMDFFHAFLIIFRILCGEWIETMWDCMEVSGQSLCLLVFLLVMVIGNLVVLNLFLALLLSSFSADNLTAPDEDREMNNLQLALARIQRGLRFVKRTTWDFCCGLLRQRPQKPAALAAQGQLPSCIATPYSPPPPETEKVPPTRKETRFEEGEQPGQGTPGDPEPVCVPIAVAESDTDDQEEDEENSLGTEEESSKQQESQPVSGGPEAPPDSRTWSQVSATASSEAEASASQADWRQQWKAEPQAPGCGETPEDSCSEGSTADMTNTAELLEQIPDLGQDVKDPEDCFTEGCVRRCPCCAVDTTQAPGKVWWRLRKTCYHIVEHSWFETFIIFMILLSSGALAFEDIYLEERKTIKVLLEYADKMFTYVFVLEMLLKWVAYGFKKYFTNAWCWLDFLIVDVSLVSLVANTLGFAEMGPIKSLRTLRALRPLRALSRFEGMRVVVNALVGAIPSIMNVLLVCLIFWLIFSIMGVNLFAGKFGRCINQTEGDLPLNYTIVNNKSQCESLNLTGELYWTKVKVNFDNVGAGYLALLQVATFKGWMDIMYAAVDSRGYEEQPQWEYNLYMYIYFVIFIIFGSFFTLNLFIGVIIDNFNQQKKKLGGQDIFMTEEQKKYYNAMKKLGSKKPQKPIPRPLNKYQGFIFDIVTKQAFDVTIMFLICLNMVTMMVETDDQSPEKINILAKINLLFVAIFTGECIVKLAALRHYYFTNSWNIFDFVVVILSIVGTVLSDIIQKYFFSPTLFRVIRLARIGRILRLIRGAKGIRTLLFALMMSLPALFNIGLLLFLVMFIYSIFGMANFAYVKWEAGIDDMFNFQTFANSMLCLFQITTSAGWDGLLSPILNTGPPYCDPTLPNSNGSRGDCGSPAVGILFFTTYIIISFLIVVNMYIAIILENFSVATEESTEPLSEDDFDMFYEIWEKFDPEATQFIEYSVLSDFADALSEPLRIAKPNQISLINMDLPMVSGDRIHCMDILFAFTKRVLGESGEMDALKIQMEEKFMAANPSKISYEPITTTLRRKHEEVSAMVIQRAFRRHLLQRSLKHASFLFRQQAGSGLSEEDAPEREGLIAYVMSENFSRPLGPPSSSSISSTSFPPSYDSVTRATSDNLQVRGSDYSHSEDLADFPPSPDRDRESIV

Compound | pIC50
C[C@](O)(CS(N)(=O)=O)c1cccc(-c2nnn(Cc3cc(Cl)ccc3Cl)n2)n1 [Example 78] | 5.00
C[C@](O)(CS(N)(=O)=O)c1cccc(-c2nnn(Cc3cccc(OC(F)(F)F)c3F)n2)n1 [Example 75] | 5.32
C[C@](O)(CS(N)(=O)=O)c1cccc(-c2nnn(Cc3cc(Cl)cc(Cl)c3Cl)n2)n1 [Example 90] | 5.05
C[C@](O)(CS(N)(=O)=O)c1cccc(-c2nnn(Cc3cc(OC(F)(F)F)ccc3Cl)n2)n1 [Example 77] | 4.89
C[C@](O)(CS(N)(=O)=O)c1cccc(-c2nnn(Cc3c(Cl)cccc3Cl)n2)n1 [Example 85] | 5.28
C[C@](O)(CS(N)(=O)=O)c1cccc(-c2nnn(Cc3cc(C(F)(F)F)ccc3Cl)n2)n1 [Example 74] | 4.68
Cc1ccc(F)c(Cn2nnc(-c3cccc([C@@](C)(O)CS(N)(=O)=O)n3)n2)c1Cl [Example 63] | 5.42
C[C@](O)(CS(N)(=O)=O)c1cccc(-c2nnn(Cc3cc(OC(F)F)ccc3F)n2)n1 [Example 84] | 4.85
C[C@](O)(CS(N)(=O)=O)c1cccc(-c2nnn(Cc3cc(F)ccc3Br)n2)n1 [Example 64] | 4.89
C[C@](O)(CS(N)(=O)=O)c1cccc(-c2nnn(Cc3cc(C(F)(F)F)cc(C(F)(F)F)c3)n2)n1 [Example 83] | 4.74
Cc1ccc(C(C)C)cc1Cn1nnc(-c2cccc([C@@](C)(O)CS(N)(=O)=O)n2)n1 [Example 72] | 5.14
Cc1cc(C)c(C)c(Cn2nnc(-c3cccc([C@@](C)(O)CS(N)(=O)=O)n3)n2)c1 [Example 68] | 4.80
C[C@](O)(CS(N)(=O)=O)c1cccc(-c2nnn(Cc3ccc(Br)cc3F)n2)n1 [Example 65] | 4.77

Same assay, conditions: CHO-K1 cells stably expressing human Nav1.5, holding potential -85 mV, Table 5, read-out: Nav1.5 IC50 (5 Hz, AF Rate)

Compound | pIC50
CC(O)(CS(N)(=O)=O)c1nc(-c2nnn(Cc3cc(OC(F)(F)F)ccc3F)n2)ccc1Cl (single isomer, unassigned) [Example 42, (R or S)-2-(3-chloro-6-(2-(2-fluoro-5-(trifluoromethoxy)benzyl)-2H-tetrazol-5-yl)pyridin-2-yl)-2-hydroxypropane-1-sulfonamide] | 4.92
CC(O)(CS(N)(=O)=O)c1cccc(-c2cnn(Cc3cc(OC(F)(F)F)ccc3F)n2)n1 (single isomer, unassigned) [Example 62, (R or S)-2-(6-(2-(2-fluoro-5-(trifluoromethoxy)benzyl)-2H-1,2,3-triazol-4-yl)pyridin-2-yl)-2-hydroxypropane-1-sulfonamide] | 5.47
CC(O)(CS(N)(=O)=O)c1cccc(-c2nc(Cc3cc(OC(F)(F)F)ccc3F)no2)n1 (racemic) [Rac-57 + 58, 2-(6-(3-(2-fluoro-5-(trifluoromethoxy)benzyl)-1,2,4-oxadiazol-5-yl)pyridin-2-yl)-2-hydroxypropane-1-sulfonamide] | 5.43
3-(6-(1-(2-fluoro-5-(trifluoromethoxy)benzyl)-1H-pyrazol-3-yl)pyridin-2-yl)-3-hydroxy-2-methylbutane-2-sulfonamide [Example 54] | 5.38
CC(O)(CS(N)(=O)=O)c1cccc(-c2nnn(Cc3cc(OCC(F)(F)F)ccc3F)n2)n1 (single isomer, unassigned) [Example 29, (R or S)-2-(6-(2-(2-fluoro-5-(2,2,2-trifluoroethoxy)benzyl)-2H-tetrazol-5-yl)pyridin-2-yl)-2-hydroxypropane-1-sulfonamide] | 6.10
CCC(O)(CS(N)(=O)=O)c1cccc(-c2ccn(Cc3cc(OC(F)(F)F)ccc3F)n2)n1 (racemic) [Example 35, 2-(6-(1-(2-fluoro-5-(trifluoromethoxy)benzyl)-1H-pyrazol-3-yl)pyridin-2-yl)-2-hydroxybutane-1-sulfonamide] | 5.40
CC(C)(C(O)c1cccc(-c2ccn(Cc3cc(OC(F)(F)F)ccc3F)n2)n1)S(N)(=O)=O (racemic) [Example 53, 1-(6-(1-(2-fluoro-5-(trifluoromethoxy)benzyl)-1H-pyrazol-3-yl)pyridin-2-yl)-1-hydroxy-2-methylpropane-2-sulfonamide] | 4.92
